From ChEMBL document CHEMBL3301546, “MMV Malaria Box yeast growth screening”

Columns and labels:
Assay type in all cases: functional
Saccharomyces cerevisiae [1] = assay: (§1) MMV: Growth assays were conducted using the prototrophic S. cerevisiae strain JHY222. Each MMV compound (0.1 mM) was tested in minimal media containing dextrose as a carbon source (Yeast Nitrogen Base, Dextrose; YNBD). The growth rate in the presence of each MMV compound was calculated as follows: (i) the first 10 OD readings were averaged and subtracted from all OD readings of the corresponding curve to set the baseline of the growth curve to zero, and (ii) the area under the curve (AUC) was then calculated as the sum of all OD readings. […] A relative growth value was calculated as follows: AUC(DRUG) - AUC(DMSO)/AUC(DMSO); where AUC(DMSO) represents growth measured in a DMSO control well that was on the same microtiter plate of the drug-treated culture.
Saccharomyces cerevisiae [2] = assay: as §1, with “rich” for “minimal”, “Extract, Peptone,” for “Nitrogen Base,”, “YPD).” for “YNBD).”
Saccharomyces cerevisiae [3] = assay: as §1, with “ethanol and glycerol” for “dextrose”, “as” for “as a”, “sources” for “source”, “Ethanol, Glycerol; YNBEG).” for “Dextrose; YNBD).”

Structure (SMILES)	Relative Growth (Saccharomyces cerevisiae [1])	Relative Growth (Saccharomyces cerevisiae [2])	Relative Growth (Saccharomyces cerevisiae [3])
O=C(Nc1ccccc1O)c1ccc(Oc2cccc(C(=O)Nc3ccccc3O)c2)cc1	0.0291	-0.023	-0.0198
Cl.N=c1n(CCN2CCCCC2)c2ccccc2n1CC(O)c1cccc(Br)c1 (stereo not given)	-0.2329	-0.0788	-0.5142
O=C(NCc1ccco1)C1CCN(S(=O)(=O)c2ccc(Cl)cc2)CC1	-0.224	-0.0768	-0.0245
COc1ccc(C(=O)Nc2ccc3nc(N4CCCCC4)cc(C)c3c2)cc1OC	-0.1419	-0.0828	-0.4538
COc1ccc(N2CCN(C(CNC(=O)C3CCCCC3)c3ccc4c(c3)OCO4)CC2)cc1 (stereo not given)	-0.0986	-0.0299	-0.124
FC(F)(F)c1ccc(Nc2nnnc3ccccc23)cc1	-0.0492	-0.97	0.0852
CCC(C)NCC(O)(c1ccc(Cl)cc1)c1ccc(Cl)cc1 (stereo not given)	0.042	0.0173	-0.0906
Cc1[nH]c(-c2ccc(F)cc2)cc1C(=O)NC1CCN(Cc2ccccc2)CC1	0.023	0.0962	0.2181
COc1ccc(CCN2CCC(CN(C)Cc3cnn(-c4ccccc4)c3)CC2)cc1	-0.2117	0.0613	-0.844
COCCNC(=O)c1ccc(OC2CCN(Cc3ccc(F)c(F)c3)CC2)c(Cl)c1	-0.0136	0.1615	0.0235
O=C(NC1CCCC1)c1ccc(N2CCC(NCc3cccc(C(F)(F)F)c3)CC2)cc1	-0.054	0.09	-0.7428
CCOc1cc(Br)c(C(C)NC(=O)c2cccc(OC)c2)cc1OCC (stereo not given)	-0.0511	0.0654	-0.5924
CC(C)=CCN1CCC(C(=O)Nc2ccc(-c3nc4ccccc4[nH]3)cc2)CC1	0.0091	-0.0484	0.1138
CCN(CC)CCn1c(=N)n(CC(O)c2ccc(Cl)c(Cl)c2)c2ccccc21.Cl (stereo not given)	0.0285	-0.0663	0.1274
CCOc1cc(Cl)c(C(C)NC(=O)c2cccc(OC)c2)cc1OCC (stereo not given)	-0.1186	-0.0293	-0.0623
O=C(CCc1ccco1)NC1CCN(CC2(c3ccc(Cl)cc3)CCC2)CC1	0.003	-0.0017	0.0483
FC(F)(F)c1cccc(Nc2nc(-c3ccccc3)nc3ncccc23)c1	-0.0599	0.1402	-0.0611
CCN1CCN(c2cc(C)c3cc(NC(=O)c4ccc(OC)c(OC)c4)ccc3n2)CC1	-0.0518	-0.0203	-0.0282
Cc1ccc(Cl)cc1N1CCN(CCCNC(=O)C2CCN(c3nc4ccccc4[nH]3)CC2)CC1	0.0248	-0.0122	0.0403
COCCN(C(=O)Cc1cccs1)C(C(=O)NCc1ccc(OC)cc1)c1ccc(C(C)C)cc1 (stereo not given)	0.0051	0.0044	0.2007
Cc1ccc(CSCc2ccc(C(=O)NC3CC3)o2)cc1	-0.0643	0.0613	-0.1982
CCOc1cc(Cl)c(C(C)NC(=O)c2ccccc2)cc1OCC (stereo not given)	-0.0221	0.0477	-0.1365
O=C(c1ccccc1F)N(Cc1ccc(Cl)cc1)c1ccccn1	0.0025	-0.0537	-0.0049
COc1ccc(C(=O)Nc2ccc(Cl)cc2C(=O)Nc2ccncc2)cc1	-0.1015	-0.2989	0.1271
O=C(Nc1ccc(CN2CCOCC2)cc1)c1ccc(-c2ccc(Br)cc2)o1	-0.3783	-0.0599	-0.1653
CC(=O)NCCc1nc2ccccc2n1Cc1ccc(C(C)C)cc1	-0.0851	0.0716	0.1937
CN(C)c1ccc(-c2nc3cc(N)ccc3[nH]2)cc1	-0.0068	0.2129	0.1829
O=C(CSc1ccc2nnc(-c3cccc(F)c3)n2n1)Nc1ccc2c(c1)OCO2	-0.0662	-0.0335	-0.3285

Structure (SMILES)	Relative Growth (Saccharomyces cerevisiae [1])	Relative Growth (Saccharomyces cerevisiae [2])	Relative Growth (Saccharomyces cerevisiae [3])
Cc1c(C)n(Cc2ccc(F)cc2)c2ccc(C(=O)NCc3ccco3)cc12	-0.1235	-0.5565	-1.0264
CC(C)(C)C(=O)Nc1ccc(C(=O)Nc2cccc(-c3nc4ccccc4[nH]3)c2)cc1	-0.1639	0.0628	-0.4785
COc1cccc(-c2nn(C)c3sc(C(=O)NCCN4CCN(c5ccccc5F)CC4)cc23)c1	-0.0156	0.1401	0.0691
Cc1ccc(CN2CCC(C(=O)Nc3ccc(-c4cc5ccccc5[nH]4)cc3)CC2)o1	-0.0113	0.0612	-0.0247
Cc1cc(C)c2nc(N3CCC(C(=O)NCCCN4CCC(N5CCCCC5)CC4)CC3)sc2c1	-0.0696	-0.0409	-0.0414
CCn1c(SCC(=O)Nc2cc(C(F)(F)F)ccc2Cl)nc2ccccc2c1=O	-0.0156	-0.0109	-0.159
Cc1ccc(Cn2c(N3CCC(C(=O)NCc4cccs4)CC3)nc3ccccc32)cc1	-0.0044	-0.105	-0.1621
O=C(Nc1ccc(Cl)cc1C(=O)Nc1ccncc1)c1ccc(Cl)cc1Cl	0.0109	0.0512	-0.1824
CC(C)(C)c1ccc(C(=O)Nc2nc3ccccc3s2)cc1	-0.0029	-0.132	-0.4045
CCOc1cccc2sc(N(Cc3cccnc3)C(=O)C3CCCCC3)nc12	-0.0544	-0.0327	-0.3394
COc1ccc(C2N(C)c3ccccc3N2C)cc1	-0.0194	-0.0039	0.0867
CCN(CC)c1cc(C)c2cc(NC(=O)c3cccc(OC)c3)ccc2n1	-0.0149	0.0048	0.0148
CC(C)(C)CC(C)(C)NCC(O)COc1ccc2c(c1)CCC2.Cl (stereo not given)	-0.0891	-0.08	-0.1886
O=C(Nc1ccccc1O)c1ccc(-c2ccc(Cl)cc2Cl)o1	0.0136	0.0802	-0.098
CC(C)OCc1cc(CN2CCN(c3cccc(Cl)c3)CC2)c(O)c2ncccc12	-0.1654	-1.0115	-0.1438
O=C(Nc1nc(-c2ccccn2)cs1)c1ccccc1Br	-0.0666	0.0205	0.1503
O=C(Nc1ccc(F)c(Cl)c1)Nc1ccc(Cl)c(Cl)c1	0.0832	-0.0686	-0.9478
CC(O)(c1ccc(Cl)cc1)C(CN1CCCCC1)c1ccccc1.Cl (stereo not given)	-0.0009	0.0259	0.0803
CCCCc1ccc(NS(=O)(=O)c2cc3c4c(c2)CCN4C(=O)CC3)cc1	-0.0346	-0.0323	0.0701
CCOc1ccc(-c2nc(NC(=O)c3cccc(S(C)(=O)=O)c3)sc2C)cc1	0.0499	0.0098	0.1015
CCOc1ccccc1CNC(=O)C1c2ccccc2C(=O)N(CC(C)C)C1c1cccs1 (stereo not given)	0.0472	-0.0674	-0.1153
COc1ccccc1N1CCN(C(CNS(=O)(=O)c2ccc(Cl)cc2)c2cccnc2)CC1 (stereo not given)	-0.1378	-0.173	-0.6721
CCOc1c(Cl)cc(CNC(C)C(O)c2ccccc2)cc1OC (stereo not given)	-0.05	-0.0562	0.1383
COc1ccc(C2Sc3ccccc3N=C3C2=C(O)c2ccccc23)cc1 (stereo not given)	-0.0473	0.0982	0.0327
CN1c2ccccc2N(C)C1c1ccc2c(c1)OCO2	-0.0051	0.0103	0.1265
O=C(NCC1Cc2cccc(-c3ccncc3)c2O1)c1csc2c1CCCC2 (stereo not given)	0.0203	0.0158	0.1029
C=C(C)CCC(C)N1CCC(N2CCC(C(=O)NCCc3ccccc3)CC2)CC1 (stereo not given)	0.0261	-0.0567	-0.0755
